Earlier results, collected in patent US7947467B2, “Methods for monitoring pathological conditions in a subject” (Common Sense Ltd., priority 2001, dated 2011).

Settings: not given

Compound | aqueous pH transition range
Cc1cc2nc3ccc(N(C)C)cc3nc2cc1N.Cl [Neutral Red] | 6.8-8.0
O=S1(=O)OC(c2ccc(O)c(Cl)c2)(c2ccc(O)c(Cl)c2)c2ccccc21 [Chlorophenol Red] | 5.2-8.8
Cc1cc(C2(c3cc(C)c(O)c(Br)c3C)OS(=O)(=O)c3ccccc32)c(C)c(Br)c1O [Bromoxylenol Blue] | 6.0-7.6
Cc1cc(O)ccc1C1(c2ccc(O)cc2C)OS(=O)(=O)c2ccccc21 [m-Cresol purple] | 7.4-9.0
Nitrazine Yellow | 6.0-7.2
Cc1cc(C2(c3ccc(O)c(C)c3)OS(=O)(=O)c3ccccc32)ccc1O [Cresol Red] | 7.2-8.8
O=C1c2ccccc2C(=O)c2c1ccc(O)c2O [Alizarin] | 5.5-6.8
Cc1cc(C2(c3cc(C)c(O)cc3C)OS(=O)(=O)c3ccccc32)c(C)cc1O [Xylenol Blue] | 8.0-9.6
Cc1cc(O)c(C(C)C)cc1C1(c2cc(C(C)C)c(O)cc2C)OS(=O)(=O)c2ccccc21 [Thymol Blue] | 8.0-9.2
Cc1cc(C2(c3cc(C)c(O)c(Br)c3)OS(=O)(=O)c3ccccc32)cc(Br)c1O [Bromcresol Purple] | 5.2-6.8
Cc1c(C2(c3cc(C(C)C)c(O)c(Br)c3C)OS(=O)(=O)c3ccccc32)cc(C(C)C)c(O)c1Br [Bromthymol Blue] | 6.0-7.6

Settings: in aqueous solution

Compound | pKa
Nitrazine Yellow | 6.6
